Reference: patent US9079930B2, “Substituted pyrimidines” (MERCK SHARP & DOHME CORP., priority 2011, dated 2015)
pIC50: −log10 of the molar value.

target: T1, FLAG-tagged full length PHD2 (Homo sapiens, UniProt Q9GZT9); assay: PHD2 inhibition assay (time resolved fluorescence, HIF-1α peptide hydroxylation, VHL complex detection); type: biochemical; conditions: 0.2 μM 2-oxoglutarate, 0.5 μM HIF-1α peptide
T1 construct: FLAG-tagged full length PHD2 expressed in and purified from baculovirus-infected Sf9 cells; FLAG; made in house; host or cells: baculovirus-infected Sf9 cells
Experimental: To each well of a 96-well plate was added 1 μL of test compound in DMSO and 20 μl of assay buffer (50 mM Tris pH 7.4/0.01% Tween-20/0.1 mg/ml bovine serum albumin/10 μM ferrous sulfate/i mM sodium ascorbate/20 μg/ml catalase) containing 0.15 μg/ml FLAG-tagged full length PHD2 expressed in and purified from baculovirus-infected Sf9 cells. After a 30 min preincubation at room temperature, the enzymatic reactions were initiated by the addition of 4 μL of substrates (final concentrations of 0.2 μM 2-oxoglutarate and 0.5 μM HIF-1α peptide biotinyl-DLDLEMLAPYIPMDDDFQL (SEQ ID NO: 1)). After 2 hr at room temperature, the reactions were terminated and signals were developed by the addition of a 25 μL quench/detection mix to a final concentration of 1 mM ortho-phenanthroline, 0.1 mM EDTA, 0.5 nM anti-(His)6 LANCE reagent (Perkin-Elmer Life Sciences), 100 nM AF647-labeled streptavidin (Invitrogen), and 2 μg/ml (His)6-VHL complex (S. Tan (2001) Protein Expr. Purif. 21, 224-234). The ratio of time resolved fluorescence signals at 665 and 620 nm was determined, and percent inhibition was calculated relative to an uninhibited control sample run in parallel.

T1 sequence (Q9GZT9 whole entry): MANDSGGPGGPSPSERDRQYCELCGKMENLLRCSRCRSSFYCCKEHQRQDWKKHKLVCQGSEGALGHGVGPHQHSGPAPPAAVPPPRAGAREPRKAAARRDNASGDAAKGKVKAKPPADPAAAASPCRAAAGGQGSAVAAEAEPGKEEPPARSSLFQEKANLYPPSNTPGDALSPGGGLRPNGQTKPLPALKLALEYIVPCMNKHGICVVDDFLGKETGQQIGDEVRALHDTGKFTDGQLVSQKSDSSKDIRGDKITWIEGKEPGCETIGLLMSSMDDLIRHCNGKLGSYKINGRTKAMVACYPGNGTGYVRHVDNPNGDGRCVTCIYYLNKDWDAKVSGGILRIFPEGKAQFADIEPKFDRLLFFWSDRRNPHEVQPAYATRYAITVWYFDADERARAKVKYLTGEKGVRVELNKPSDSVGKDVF

| SMILES | pIC50 |
| --- | --- |
| COc1ccc(C(NC(=O)c2cnc(-c3ccccn3)nc2O)c2ccc([PH](=O)O)cc2)cc1 (stereo not drawn) [Compound 1-1-6, 4-((4-hydroxy-2-(pyridin-2-yl)pyrimidine-5-carboxamido)(4-methoxyphenyl)methyl)phenylphosphinic acid] | 7.70 to 9.30 |
| CCOP(=O)(OCC)c1ccc(C(NC(=O)c2cnc(-c3ccccn3)nc2O)c2ccccc2)cn1 (stereo not drawn) [Compound 4-1, Diethyl 5-((4-hydroxy-2-(pyridin-2-yl)pyrimidine-5-carboxamido)(phenyl)methyl)pyridin-2-ylphosphonate] | 7.70 to 9.30 |
| CCOP(=O)(OCC)c1ccc(C(NC(=O)c2cnc(-c3ccccn3)nc2O)c2ccccc2)cc1 (stereo not drawn) [Compound 2-1, Diethyl 4-((4-hydroxy-2-(pyridin-2-yl)pyrimidine-5-carboxamido)(phenyl)methyl)phenyl phosphonate] | 7.70 to 9.30 |
